According to patent publication US9452036B2, “Dental ultrasonic drug delivery system and dental ultrasonic drug delivery method” (priority 2009, dated 2016):

Key:
[1] = tested on: kanamycin-resistant enterococcus faecalis (lactococcus); test: In vivo tubule sterilization test using ultrasound and nanobubbles (canine tooth root canal)
Method: After a canine tooth had been subjected to access cavity preparation and root canal enlargement (to #60) in vivo by common methods, a smear layer was removed with a Smear Clean (Nippon Shika Yakuhin Co., Ltd.). Then, the inside of the root canal was sufficiently dried with a cotton plug. Thereafter, 10 μl of a bacterial culture (a brain heart infusion (BHI) broth, Nissui Pharmaceuticals Co., Ltd., containing kanamycin) in which kanamycin-resistant enterococcus faecalis (lactococcus) subjected to gene transfer of pEGFP-C1 (clontech) was cultured was injected into each root canal. Subsequently, the root canal was temporarily sealed with zinc phosphate cement. Then, after 7 days, the root canal was irrigated with 3 ml of a saline solution. Thereafter, 20 μl of a drug solution containing 10% nanobubbles and 50 μg/ml of ampicillin was applied into the root canal. Then, with an ultrasound generator (SonoPore KTAC-4000), an ultrasonic device with a diameter of 1 mm of a detachable irradiation tube propagation type probe (i.e., an applicator type in which a Langevin transducer is provided inside a probe body) was inserted into the root canal, and ultrasound was delivered at a voltage of 30 V, a frequency of 1.186 MHz, a burst rate of 18.8 Hz, and a pulse-duty ratio of 50% for an application time of 120 seconds. […]

E. Coli = test: In vitro tubule sterilization test using sodium hypochlorite and nanobubbles (extracted bovine teeth); assay type: cell-based; conditions: for OD600 value: paper point cultured 12 hours
Method: Using ten extracted bovine teeth (anterior teeth), the apical area of each of the teeth was filled with photopolymerization type ionomer cement. Then, the inside of the root cavity was treated with 6% sodium hypochlorite, irrigated, and sterilized with an autoclave. Thereafter, the inside of the root canal was sufficiently irrigated with a sterilized saline solution, dried with a paper point, filled with an E. Coli saturated solution, and then cultured in a humidity bath at 37° C. for a night. Then, the E. Coli solution in the root canal was sucked with a paper point, and the root canal was filled with an irrigation solution and 1% or 0.1% sodium hypochlorite. Thereafter, 5% nanobubbles were injected into the root canal, and ultrasound was applied thereto at a voltage of 30 V, a frequency of 1.186 MHz, a burst rate of 18.8 Hz, and a pulse-duty ratio of 50% for 120 seconds. Subsequently, the root canal was sufficiently irrigated with a saline solution, and the tooth was left for one minute with a paper point inserted into the root canal. Then, the paper point was cultured. After 12 hours, the amount of bacteria was measured with an absorbance OD600.

[2] = In-vitro test for drug permeation in root canal using ultrasound and nanobubbles (extracted canine tooth, fluorescence); assay type: in vitro ADME
From the text: After an extracted canine tooth had been subjected to access cavity preparation and root canal enlargement (to #60) by common methods, a smear layer was removed with a Smear Clean (Nippon Shika Yakuhin Co., Ltd.), and the tooth was refrigerated in a saline solution until being used in an experiment. Then, the inside of the root canal was sufficiently dried with a cotton plug. Thereafter, to prevent a drug solution from leaking from the root canal, an apical area was filled with a Unifast III (GC Corporation). Subsequently, nanobubbles were diluted with a saline solution such that the concentration of the nanobubbles is 5% or 10% (where the bubble concentration will be expressed in terms of vol % hereinafter), thereby preparing a drug solution containing 4.5 mg/ml tetracycline (SIGMA088K0680). The 5% nanobubbles herein mean that the concentration of the nanobubbles is 6×10^8/ml. The 10% nanobubbles herein mean that the concentration of the nanobubbles is 1.2×10^9/ml. Since even a small amount of deposited tetracycline produces fluorescence when irradiated with ultraviolet radiation, a deposition site can be easily detected with a fluorescence microscope. As a control, microbubbles (Optison (Molecular Biosystems Inc., San Diego)) were used, and a 5% or 10% drug solution was used. The 5% microbubbles herein mean that the concentration of the microbubbles is 6×10^8/ml. The 10% microbubbles herein mean that the concentration of the microbubbles is 1.2×10^9/ml. Then, 20 μl of the drug solution was applied into the root canal, and using an ultrasound generator (SonoPore KTAC-4000), an ultrasonic device with a diameter of 1 mm of a detachable irradiation tube propagation type probe (i.e., an applicator type in which a Langevin transducer is provided inside a probe body) was inserted into the root canal, and the device was operated. Operating conditions were that the voltage was 30 V (0.13-0.20 W indicated by a meter) or 31 V, the frequency was 1.186 MHz, the burst rate was 18.8 Hz, the pulse-duty ratio was 50%, and the application time was 120 seconds. After a lapse of the application time, the dilution solution was sufficiently removed with a cotton plug, and then a section with a thickness of 150 μm was prepared with a saw microtome (Leica SP1600), and a microscopic examination was performed with a stereomicroscope under ultraviolet irradiation. The degree of delivery of the drug into dentin tubules was observed based on fluorescence reaction.

With `CC1(C)S[C@@H]2[C@H](NC(=O)[C@H](N)c3ccccc3)C(=O)N2[C@H]1C(=O)O` [ampicillin] the “bacteria in the lateral wall of the root canal” value ([1]; 50 μg/ml ampicillin delivered using 10% nanobubbles and ultrasound 30 V, 120 seconds, fourth day (FIG. 25A)) was “no bacteria were observed” and the “bacteria in the lateral wall of the root canal” value ([1]; only ampicillin, fourth day (FIG. 25B)) was “bacteria were not completely killed”.
In the case of `OCl` [sodium hypochlorite], the “sterilization of the inside of the root canal” value (E. Coli; 0.1% sodium hypochlorite) is reported as “sterilized only in the presence of 5% nanobubbles”, the “bactericidal effect in the root canal” value (E. Coli; 1% sodium hypochlorite, irrespective of the presence of 5% nanobubbles) is reported as “a bactericidal effect was obtained” and the OD600 value (E. Coli; sodium hypochlorite 1.0, 5% nanobubbles +, ultrasound 30 V 120 seconds) is reported as 0. The OD600 value (E. Coli; sodium hypochlorite 1.0, 5% nanobubbles −) was 0.
In the case of `CN(C)[C@@H]1C(O)=C(C(N)=O)C(=O)[C@@]2(O)C(O)=C3C(=O)c4c(O)cccc4[C@@](C)(O)[C@H]3C[C@@H]12` [tetracycline], the “degree of delivery of the drug to dentin tubules” value ([2]; 5% microbubbles, no ultrasound (FIG. 21E)) is reported as “insufficient”, the “degree of delivery of the drug to dentin tubules” value ([2]; 5% microbubbles, ultrasound 30 V (FIG. 21D)) is reported as “insufficient” and the “degree of delivery of the drug to dentin tubules” value ([2]; 5% nanobubbles, no ultrasound (FIG. 21C)) is reported as “insufficient”. For the same compound, the “degree of delivery of the drug to dentin tubules” value ([2]; 5% nanobubbles, ultrasound 30 V, 120 seconds, 4.5 mg/ml tetracycline (FIG. 21A)) was “high”, the “degree of delivery of the drug to dentin tubules” value ([2]; 5% nanobubbles, ultrasound 31 V (FIG. 21B)) was “insufficient” and the “degree of delivery of the drug to dentin tubules” value ([2]; 10% microbubbles, no ultrasound (FIG. 22E)) was “insufficient”. The “degree of delivery of the drug to dentin tubules” value ([2]; 10% microbubbles, ultrasound 30 V (FIG. 22D)) was “insufficient”, the “degree of delivery of the drug to dentin tubules” value ([2]; 10% nanobubbles, no ultrasound (FIG. 22C)) was “insufficient” and the “degree of delivery of the drug to dentin tubules” value ([2]; 10% nanobubbles, ultrasound 30 V, 120 seconds, 4.5 mg/ml tetracycline (FIG. 22A)) was “high”. The “degree of delivery of the drug to dentin tubules” value ([2]; 10% nanobubbles, ultrasound 31 V (FIG. 22B)) was “insufficient”, the “drug permeation with nanobubbles compared with microbubbles” value ([2]; bubble concentrations of 5% and 10%) was “more significantly permeates” and the “degree of delivery of the drug to dentin tubules, 10% nanobubbles compared with 5% nanobubbles” value ([2]; ultrasound 30 V (FIGS. 21A and 22A)) was “higher”.
